Measurements published in US8592581B2, “Trisubstituted purine derivatives” (Cyclacel Limited, priority 2007, dated 2013).

Experiments:
CYP2D6 = CYP2D6 (Homo sapiens (Human), UniProt P10635); test: Cytochrome P450 substrate identification (Bactosomes) CYP2D6; type: in vitro ADME; details: pH 7.4, 5 μM test compound, up to 45 min, read-out: half life in the presence of CYP2D6
Description: cDNA expressed human CYP450 enzyme preparations co-expressed with human NADPH cytochrome P450 reductase (Bactosomes™) were supplied by Cypex Ltd. Bactosomes™ (final P450 concentration CYP1A2 100 pmol/mL, CYP2C8 50 pmol/mL, CYP2C9 25 pmol/mL, CYP2C19 100 pmol/mL, CYP2D6 50 pmol/mL and CYP3A4 25 pmol/mL), 0.1M phosphate buffer pH7.4 and test compound (final substrate concentration=5 μM; final DMSO concentration=0.25%) were pre-incubated at 37° C. prior to the addition of NADPH (final concentration=1 mM) to initiate the reaction. Incubations were also performed using control bactosomes (no P450 enzymes present) to reveal any non-enzymatic degradation. The final incubation volume was 25 μL. Compounds known to be metabolised specifically by each CYP450 isoform were used as control compounds.
Each compound was incubated singly for 0, 5, 15, 30 and 45 min with each CYP isoform. The reactions were stopped by the addition of 50 μL methanol containing internal standard at the appropriate time points. The incubation plates were centrifuged at 2500 rpm for 20 min at 4° C. to precipitate the protein. Following protein precipitation, the sample supernatants were combined in cassettes of up to four compounds and analysed using generic LC-MS/MS conditions.
The In peak area ratio (which has been corrected for any loss in the incubations with the control bactosomes) was plotted against time and the gradient of the line determined.
The elimination rate constant (k)=(−gradient)

CYP2C9 = CYP2C9 (Homo sapiens (Human), UniProt P11712); test: CYP2C9 inhibition, human liver microsomes, tolbutamide; type: in vitro ADME
Description: Six test compound concentrations (0.05, 0.25, 0.5, 2.5, 5, 25 μM in DMSO; final DMSO concentration=0.25%) were incubated with human liver microsomes (1 mg/mL) and NADPH (1 mM) in the presence of the probe substrate tolbutamide (120 μM) for 60 min at 37° C. The selective CYP2C9 inhibitor, sulphaphenazole, was screened alongside the test compounds as a positive control.
(§1) For the CYP1A incubations, the reactions were terminated by the addition of methanol, and the formation of the metabolite, resorufin, was monitored by fluorescence (excitation wavelength=535 nm, emission wavelength=595 nm). For the CYP2C9, CYP2C19, CYP2D6, and CYP3A4 incubations, the reactions were terminated by the addition of methanol containing internal standard. The samples were then centrifuged, and the supernatants were combined, for the simultaneous analysis of 4-hydroxytolbutamide, 4-hydroxymephenyloin, dextrorphan, and 1-hydroxymidazolam plus internal standard by LC-MS/MS using generic LC-MS/MS conditions. Formic acid in deionised water (final concentration=0.1%) was added to the final sample prior to analysis.

A549 = test: Alamar blue cytotoxicity assay A549; type: cell-based; details: Homo sapiens, 72 hours, read-out: cellular cytotoxicity IC50 A549
Description: (§2) In order to determine the cellular potency of the compounds, the cytotoxicity of each compound was determined against a range of cell lines. Standard cytotoxicity methods were performed as follows: cells were seeded in 96-well plates appropriately for their doubling time (2-5000 cells per well) in RPMI or DMEM media containing 10% FCS and incubated overnight at 37° C., 5% CO2. The media was removed and 100 μl fresh media containing increasing concentrations of appropriate compound was added and the cells incubated for 72 hours at 37° C., 5% CO2. A 10% stock of alamar blue (Roche, Lewes, United Kingdom) was prepared in medium and 100 μl added to the cells which were incubated for 2 hours. Absorbance was measured on the Wallac Victor 2 1420 multi-label counter at 544-595 nm.

CYP3A4 = CYP3A4 (Homo sapiens (Human), UniProt P08684); test: CYP3A4 inhibition, human liver microsomes, midazolam; type: in vitro ADME
Description: Six test compound concentrations (0.05, 0.25, 0.5, 2.5, 5, 25 μM in DMSO; final DMSO concentration 0.26%) were incubated with human liver microsomes (0.25 mg/mL) and NADPH (1 mM) in the presence of the probe substrate midazolam (2.5 μM) for 5 min at 37° C. The selective CYP3A4 inhibitor, ketoconazole, was screened alongside the test compounds as a positive control.
as §1

A2780 = test: Alamar blue cytotoxicity assay A2780; type: cell-based; details: Homo sapiens, 72 hours, read-out: cellular cytotoxicity IC50 A2780
Description: as §2

Sequence of CYP3A4 (P08684 whole entry): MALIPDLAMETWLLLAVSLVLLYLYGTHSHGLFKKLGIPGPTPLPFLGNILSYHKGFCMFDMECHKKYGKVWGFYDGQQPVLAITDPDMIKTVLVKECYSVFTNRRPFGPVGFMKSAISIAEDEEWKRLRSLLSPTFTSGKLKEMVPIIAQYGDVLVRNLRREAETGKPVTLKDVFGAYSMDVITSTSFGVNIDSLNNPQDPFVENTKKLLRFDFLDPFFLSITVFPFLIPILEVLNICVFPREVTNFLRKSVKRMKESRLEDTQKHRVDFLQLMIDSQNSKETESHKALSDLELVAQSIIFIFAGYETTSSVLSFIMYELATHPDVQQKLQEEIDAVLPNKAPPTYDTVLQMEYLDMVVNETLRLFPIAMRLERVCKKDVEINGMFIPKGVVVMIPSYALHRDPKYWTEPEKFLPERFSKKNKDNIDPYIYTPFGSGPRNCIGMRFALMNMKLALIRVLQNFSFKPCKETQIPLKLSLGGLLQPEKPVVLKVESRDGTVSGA
Sequence of CYP2C9 (P11712 whole entry): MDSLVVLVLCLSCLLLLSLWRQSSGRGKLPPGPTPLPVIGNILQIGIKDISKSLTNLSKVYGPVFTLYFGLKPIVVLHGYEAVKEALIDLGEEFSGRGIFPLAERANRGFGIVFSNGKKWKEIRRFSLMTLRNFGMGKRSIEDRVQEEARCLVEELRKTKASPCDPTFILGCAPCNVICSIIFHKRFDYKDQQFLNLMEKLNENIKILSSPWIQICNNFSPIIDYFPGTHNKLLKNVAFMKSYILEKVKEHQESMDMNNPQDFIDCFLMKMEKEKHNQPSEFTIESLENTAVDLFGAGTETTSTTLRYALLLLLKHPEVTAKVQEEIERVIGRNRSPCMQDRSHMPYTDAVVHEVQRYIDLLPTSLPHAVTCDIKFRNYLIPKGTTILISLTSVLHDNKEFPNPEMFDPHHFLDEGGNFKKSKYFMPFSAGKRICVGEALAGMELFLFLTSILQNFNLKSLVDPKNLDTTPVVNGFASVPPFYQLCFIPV
Sequence of CYP2D6 (P10635 whole entry): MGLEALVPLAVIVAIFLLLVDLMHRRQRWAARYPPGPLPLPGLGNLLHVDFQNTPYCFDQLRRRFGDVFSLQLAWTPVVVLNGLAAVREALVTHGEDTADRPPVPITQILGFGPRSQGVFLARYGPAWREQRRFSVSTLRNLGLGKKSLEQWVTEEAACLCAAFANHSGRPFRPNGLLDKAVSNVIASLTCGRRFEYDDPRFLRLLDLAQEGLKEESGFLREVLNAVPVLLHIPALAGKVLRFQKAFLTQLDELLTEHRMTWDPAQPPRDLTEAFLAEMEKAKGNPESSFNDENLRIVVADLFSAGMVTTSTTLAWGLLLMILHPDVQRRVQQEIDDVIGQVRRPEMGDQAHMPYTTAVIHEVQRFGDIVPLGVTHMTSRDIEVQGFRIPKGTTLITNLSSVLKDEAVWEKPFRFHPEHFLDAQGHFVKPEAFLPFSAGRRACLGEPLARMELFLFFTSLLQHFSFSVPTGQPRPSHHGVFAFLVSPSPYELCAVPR

## CC[C@H](Nc1nc(NCc2cnc(C)cc2C)c2ncn(C(C)C)c2n1)[C@@H](C)O [Compound [1]]
CYP2D6
  half-life at 5 μM: > 45 min
CYP2C9
  IC50: 23.8 µM
A549
  IC50: 0.16 µM
CYP3A4
  CYP3A4-inhibiting concentration as multiple of cellular IC50: ~60 times
  concentration up to which CYP3A4 is not inhibited: greater than 20 μM
  inhibition of CYP3A4 (in words): does not significantly inhibit CYP3A4
CYP3A4; human liver microsomes
  IC50: 22.5 µM
A2780
  IC50: 0.41 µM
